This is an account of results in patent US11046681B2, “Substituted piperidines for the treatment of cancer” (LES LABORATOIRES SERVIER, priority 2016, dated 2021).

The test system of assay [1] is MM1S multiple myeloma tumour cell line. Description: In vitro cytotoxicity, Microculture Tetrazolium Assay (MTT) on MM1S cells. The following applies: Homo sapiens, MM1.S, exposed for 96 hours, cell viability by MTT. The assay is classed as cell-based. As to the method: The cytotoxicity studies were carried out on the MM1S multiple myeloma tumour cell line. The cells are distributed onto microplates and exposed to the test compounds for 96 hours. The cell viability is then quantified by a colorimetric assay, the Microculture Tetrazolium Assay (Cancer Res., 1987, 47, 939-942).

Assay [2] has as its target His-His-USP7 (aa208-560, [C315A]) (Homo sapiens (Human), UniProt Q93009, C315A). Description: Evaluation of the inhibition of USP7 by Fluorescence Intensity (FLINT) readings. The assay is classed as biochemical. The note with it: 0.25 nM USP7, 60 minutes at 30° C. preincubation, 500 nM Ubiquitin-Rhodamine-110 substrate, 50% reduction in kinetic rate. The procedure: USP7 activity was measured using Rhodamine-110 c-terminal labelled Ubiquitin as a substrate (Viva Biosciences). Incubation with USP7 results in the release of Rhodamine-110 leading to an increase in fluorescence which can be used in the continuous measurement of USP7 activity.
The USP7 reactions were performed in a 50 μL volume, in 384 well black solid low binding plates (Corning #3575). The reaction buffer consisted of 100 mM Bicine pH 8.0, 0.01% TritonX100, 1 mM TCEP, and 10% DMSO.
0.25 nM His-His-USP7 (aa208-560, [C315A]) was incubated with compound (final concentration 10% DMSO) for 60 minutes at 30° C. The reaction was then initiated by the addition of 500 nM Ubiquitin-Rhodamine-110 substrate and the plate read every 3 minutes for 21 minutes to measure the release of Rhodamine-110. Fluorescence Intensity (FLINT) readings were measured using a […] Neo plate reader (Ex.485 nm, Em.535 nm).
The inhibition of increasing doses of compound was expressed as a percentage reduction in kinetic rate compared to the kinetic rates established between ‘DMSO only’ and ‘total inhibition’ controls (no USP7). The inhibitory concentrations that gave a 50% reduction in kinetic rate (IC50) were determined, from 11-point dose response curves, in XL-Fit using a 4-Parameter Logistic Model (Sigmoidal Dose-Response Model).

Sequence of His-His-USP7 (aa208-560, [C315A]) (Q93009 208-560 C315A): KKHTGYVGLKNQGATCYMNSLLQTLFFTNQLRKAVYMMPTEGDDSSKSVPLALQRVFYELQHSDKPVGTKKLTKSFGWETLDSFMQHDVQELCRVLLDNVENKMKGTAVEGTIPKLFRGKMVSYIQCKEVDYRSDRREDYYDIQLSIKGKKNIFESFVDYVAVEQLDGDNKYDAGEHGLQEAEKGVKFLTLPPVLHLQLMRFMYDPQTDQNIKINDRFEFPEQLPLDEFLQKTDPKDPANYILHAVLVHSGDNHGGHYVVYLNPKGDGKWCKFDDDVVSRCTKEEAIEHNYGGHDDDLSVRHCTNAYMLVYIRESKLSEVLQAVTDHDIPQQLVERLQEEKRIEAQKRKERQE

As for `COc1ccc(-n2ccc3c(=O)n(CC4(O)CCN(C(=O)[C@@H]5CCN(C(=O)OC(C)(C)C)C[C@H]5c5ccccc5)CC4)cnc32)cc1` [EXAMPLE 40, tert-butyl (3R,4R)-4-[4-hydroxy-4-[[7-(4-methoxyphenyl)-4-oxo-pyrrolo[2,3-d]pyrimidin-3-yl]methyl]piperidine-1-carbonyl]-3-phenyl-piperidine-1-carboxylate], the IC50 (in general, the concentration that gives 50% inhibition) was determined as 31.5 nM in assay [1] and 49.9 nM in assay [2].
For the compound `O=C([C@@H]1CCNC[C@H]1c1ccccc1)N1CCC(O)(Cn2cnc3c(ccn3-c3ccccc3)c2=O)CC1` [EXAMPLE 101, 3-[[4-hydroxy-1-[(3R,4R)-3-phenylpiperidine-4-carbonyl]-4-piperidyl]methyl]-7-phenyl-pyrrolo[2,3-d]pyrimidin-4-one], the IC50 came out at 272 nM in assay [1] and 31.6 nM in assay [2].
The corresponding values for `COc1ccc(-n2ccc3c(=O)n(CC4(O)CCN(C(=O)[C@@H]5CCNC[C@H]5c5ccccc5)CC4)cnc32)cc1` [EXAMPLE 135, 3-[[4-hydroxy-1-[(3R,4R)-3-phenylpiperidine-4-carbonyl]-4-piperidyl]methyl]-7-(4-methoxyphenyl)pyrrolo[2,3-d]pyrimidin-4-one] are 135 nM and 28.7 nM.
Regarding `CN1CC[C@@H](C(=O)N2CCC(O)(Cn3cnc4c(ccn4-c4ccc(Cl)cc4)c3=O)CC2)[C@H](c2ccccc2)C1` [EXAMPLE 153, 7-(4-chlorophenyl)-3-[[4-hydroxy-1-[(3R,4R)-1-methyl-3-phenyl-piperidine-4-carbonyl]-4-piperidyl]methyl]pyrrolo[2,3-d]pyrimidin-4-one], the IC50 was 74.7 nM in assay [1] and 48.6 nM in assay [2].
The corresponding values for `O=C([C@@H]1CCNC[C@H]1c1ccccc1)N1CCC(O)(Cn2cnc3c(cnn3-c3ccc4c(c3)OCCO4)c2=O)CC1` [EXAMPLE 165, 1-(2,3-dihydro-1,4-benzodioxin-6-yl)-5-[[4-hydroxy-1-[(3R,4R)-3-phenylpiperidine-4-carbonyl]-4-piperidyl]methyl]pyrazolo[3,4-d]pyrimidin-4-one] are 300 nM and 19.6 nM.
In turn, `CC(=O)N1CC[C@@H](C(=O)N2CCC(O)(Cn3cnc4c(ccn4-c4cccc(Cl)c4)c3=O)CC2)[C@H](c2ccccc2)C1` [EXAMPLE 180, 3-[[1-[(3R,4R)-1-acetyl-3-phenyl-piperidine-4-carbonyl]-4-hydroxy-4-piperidyl]methyl]-7-(3-chlorophenyl)pyrrolo[2,3-d]pyrimidin-4-one] returned an IC50 in assay [2] of 89 nM.
`CC(=O)N1CC[C@@H](C(=O)N2CCC(O)(Cn3cnc4c(ccn4-c4ccc(Cl)cc4)c3=O)CC2)[C@H](c2ccccc2)C1` [EXAMPLE 181, 3-[[1-[(3R,4R)-1-acetyl-3-phenyl-piperidine-4-carbonyl]-4-hydroxy-4-piperidyl]methyl]-7-(4-chlorophenyl)pyrrolo[2,3-d]pyrimidin-4-one] displayed an IC50 in assay [2] of 74.2 nM.
Compound `CC(C)(C)C(=O)N1CC[C@@H](C(=O)N2CCC(O)(Cn3cnc4c(ccn4-c4ccccc4)c3=O)CC2)[C@H](c2ccccc2)C1` [EXAMPLE 184, 3-[[1-[(3R,4R)-1-(2,2-dimethylpropanoyl)-3-phenyl-piperidine-4-carbonyl]-4-hydroxy-4-piperidyl]methyl]-7-phenyl-pyrrolo[2,3-d]pyrimidin-4-one] yielded an IC50 in assay [2] of 83 nM.
Still for that read-out and setting: the figure for `CC(C)(C)CC(=O)N1CC[C@@H](C(=O)N2CCC(O)(Cn3cnc4c(ccn4-c4ccccc4)c3=O)CC2)[C@H](c2ccccc2)C1` [EXAMPLE 187, 3-[[1-[(3R,4R)-1-(3,3-dimethylbutanoyl)-3-phenyl-piperidine-4-carbonyl]-4-hydroxy-4-piperidyl]methyl]-7-phenyl-pyrrolo[2,3-d]pyrimidin-4-one] is 88.5 nM.
